Broadly, the efflux ratio is the permeability from basolateral to apical divided by that in the opposite direction, in the common usage.

Structures are written as SMILES.

Results on six compounds are retold here after ChEMBL document CHEMBL1157141, “Prediction of intestinal absorption and metabolism of pharmacologically active flavones and flavanones” (Bioorg Med Chem, 2008).

Data set [1] is described as follows: Apparent permeability from basolateral to apical side in human Caco-2 cells. Format: ADME, cell-based. Conditions: read-out: permeability. A general note: Caco-2 cells form a polarised layer with tight junctions and transporters.
A short description of data set [2]: Apparent permeability from apical to basolateral side in human Caco-2 cells assessed as drug recovery. The settings on record: read-out: Activity. Format: ADME, cell-based.
Data set [3] is described as follows: Stability in hank's balanced salt solution at 15 uM after 60 mins. Format: physicochemical. The settings on record: read-out: Stability.
Data set [4] in a line: Apparent permeability across PAMPA membrane assessed as drug recovery. Format: ADME. The settings on record: read-out: Activity. (In general: The PAMPA barrier holds no transporters, so it reflects passive diffusion.)
A short description of data set [5]: Stability in hank's balanced salt solution at 15 uM after 120 mins. Format: physicochemical. Conditions: read-out: Stability.
Data set [6] is described as follows: Apparent permeability across PAMPA membrane. Format: ADME. Conditions: read-out: permeability.
A short description of data set [7]: Stability in hank's balanced salt solution at 15 uM after 24 hrs. Conditions: read-out: Stability. Format: physicochemical.
A short description of data set [8]: Apparent permeability from apical to basolateral side in human Caco-2 cells. Conditions: read-out: permeability. Format: ADME, cell-based.
The nature of data set [9]: Apparent permeability from basolateral to apical side in human Caco-2 cells assessed as drug recovery. Format: ADME, cell-based. Conditions: read-out: Activity.
Data set [10] can be described thus: Stability in hank's balanced salt solution at 15 uM after 180 mins. Format: physicochemical. Conditions: read-out: Stability.
Data set [11] is described as follows: Ratio of permeability from basolateral to apical side over apical to basolateral side in human Caco-2 cells. Format: ADME, cell-based.
Data set [12] in a line: Stability in hank's balanced salt solution at 15 uM after 20 mins. Format: physicochemical. The settings on record: read-out: Stability.

On to `COc1ccc(-c2cc(=O)c3c(O)cc(O)cc3o2)cc1O` [DIOSMETIN], for which, in data set [1], the Papp B→A came to 12.4 ×10⁻⁶ cm/s. Further, the values for the recovery in data set [2], in [4] and in data set [9] were 59.1%, 82% and 66.8%, respectively. Moreover, the remaining at 1 h, 15 µM in [3] was found to be 96.5%. Moreover, in [5], the remaining at 2 h, 15 µM worked out at 101%. Moreover, in [6], the Papp worked out at 76.1 ×10⁻⁶ cm/s. The remaining at 24 h, 15 µM in data set [7] is 50.9%. Besides, in [8], the Papp A→B worked out at 76.2 ×10⁻⁶ cm/s. Further, the remaining at 3 h, 15 µM in [10] turned out to be 98.4%. Further, the efflux ratio in data set [11] was 0.2. Besides, the remaining at 20 min, 15 µM in data set [12] was determined as 100%.

Turning to `COc1ccc(-c2cc(=O)c3c(O)cc(O[C@@H]4O[C@H](CO[C@@H]5O[C@@H](C)[C@H](O)[C@@H](O)[C@H]5O)[C@@H](O)[C@H](O)[C@H]4O)cc3o2)cc1O` [DIOSMIN], the results for the recovery in data set [2] and in data set [9] were 61.9% and 68.9%, respectively. The remaining at 2 h, 15 µM in data set [5] was 88.6%. In addition, in data set [7], the remaining at 24 h, 15 µM was found to be 0%. Besides, the remaining at 3 h, 15 µM in [10] stood at 78.4%. In addition, in data set [12], the remaining at 20 min, 15 µM turned out to be 103%.

In the case of `COc1ccc([C@@H]2CC(=O)c3c(O)cc(O)cc3O2)cc1O` [HESPERETIN], the Papp B→A in data set [1] turned out to be 27 ×10⁻⁶ cm/s. The recovery in data set [2] was 34.1%; in data set [4], 84%; in data set [9], 70.1%. The remaining at 1 h, 15 µM in data set [3] came out at 99.9%. Moreover, the remaining at 2 h, 15 µM in data set [5] was 91.1%. The Papp in data set [6] is 35.7 ×10⁻⁶ cm/s. For the same compound, the remaining at 24 h, 15 µM in data set [7] came to 80%. In addition, the Papp A→B in data set [8] is 47.1 ×10⁻⁶ cm/s. Moreover, the remaining at 3 h, 15 µM in data set [10] was found to be 90.8%. Also, the efflux ratio in [11] was 0.6. Besides, the remaining at 20 min, 15 µM in data set [12] worked out at 94.5%.

`COc1ccc([C@@H]2CC(=O)c3c(O)cc(O[C@@H]4O[C@H](CO[C@@H]5O[C@@H](C)[C@H](O)[C@@H](O)[C@H]5O)[C@@H](O)[C@H](O)[C@H]4O)cc3O2)cc1O` [HESPERIDIN]: the recovery in [2] amounted to 76.9%; in [9], 80.2%. Besides, the remaining at 2 h, 15 µM in data set [5] came out at 87.9%. For the same compound, the remaining at 24 h, 15 µM in [7] was 84.9%. Besides, in data set [10], the remaining at 3 h, 15 µM was 86.3%. Also, in data set [12], the remaining at 20 min, 15 µM was 99.8%.

With `O=C1C[C@@H](c2ccc(O)cc2)Oc2cc(O)cc(O)c21` [NARINGENIN], in [1], the Papp B→A came to 51.4 ×10⁻⁶ cm/s. Also, the recovery came to 54.4% in [2], 87% in data set [4] and 93% in data set [9]. In addition, the remaining at 1 h, 15 µM in data set [3] came to 99.4%. Also, the remaining at 2 h, 15 µM in data set [5] was 100%. The Papp in data set [6] turned out to be 25.7 ×10⁻⁶ cm/s. The remaining at 24 h, 15 µM in data set [7] worked out at 79.9%. Also, the Papp A→B in [8] came to 37.8 ×10⁻⁶ cm/s. In addition, the remaining at 3 h, 15 µM in [10] stood at 91.2%.

As for `C[C@@H]1O[C@@H](O[C@H]2[C@H](Oc3cc(O)c4c(c3)O[C@H](c3ccc(O)cc3)CC4=O)O[C@H](CO)[C@@H](O)[C@@H]2O)[C@H](O)[C@H](O)[C@H]1O` [NARINGIN], the recovery amounted to 85.7% in data set [2] and 88.4% in data set [9]. In data set [5], the remaining at 2 h, 15 µM turned out to be 92.2%. The remaining at 24 h, 15 µM in [7] was 88.5%. Besides, the remaining at 3 h, 15 µM in data set [10] is 90.4%. In data set [12], the remaining at 20 min, 15 µM is 98.3%.
